This is an account of results in ChEMBL document CHEMBL1127722, “Aminophosphonic acid containing inhibitors of human collagenase: modification of the P1 residue” (Bioorg Med Chem Lett, 1994).

The target in this test is T1, Interstitial collagenase (Homo sapiens, UniProt P03956).
T1 sequence (P03956 whole entry): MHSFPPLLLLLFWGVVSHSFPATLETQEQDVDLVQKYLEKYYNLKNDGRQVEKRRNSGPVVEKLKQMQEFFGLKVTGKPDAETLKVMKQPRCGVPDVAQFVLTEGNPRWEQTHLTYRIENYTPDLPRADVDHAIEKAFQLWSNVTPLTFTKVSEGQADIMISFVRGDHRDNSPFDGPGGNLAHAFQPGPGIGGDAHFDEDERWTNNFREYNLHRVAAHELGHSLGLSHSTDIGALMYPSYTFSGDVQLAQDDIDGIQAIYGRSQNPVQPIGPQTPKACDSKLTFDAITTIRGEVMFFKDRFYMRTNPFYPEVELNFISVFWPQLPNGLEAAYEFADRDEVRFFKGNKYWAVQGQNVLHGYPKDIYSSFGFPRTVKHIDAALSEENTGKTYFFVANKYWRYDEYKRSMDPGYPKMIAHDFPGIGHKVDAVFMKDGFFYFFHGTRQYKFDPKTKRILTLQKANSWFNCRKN
The test can be described thus: Inhibition of human fibroblast collagenase.

Broadly, the IC50 is the concentration that gives 50% inhibition. `CNC(=O)[C@H](Cc1ccccc1)NC(=O)[C@H](CC(C)C)NC(CCN1C(=O)c2ccccc2C1=O)P(=O)(O)O` (stereo not given in full) had a half-maximal inhibitory concentration (IC50) of 360 nM.

The molecule `CNC(=O)[C@H](CC(C)C)NC(=O)[C@H](CC(C)C)CP(=O)(O)CNC(C)=O` displayed an IC50 of 37000 nM. `CNC(=O)[C@H](Cc1ccccc1)NC(=O)[C@H](CC(C)C)N[C@@H](CCN1C(=O)c2cccc3c(Br)ccc(c23)C1=O)P(=O)(O)O` yielded an IC50 of 20 nM. Then `CNC(=O)[C@H](Cc1ccccc1)NC(=O)[C@H](CC(C)C)NC(CN1C(=O)c2cccc3cccc(c23)C1=O)P(=O)(O)O` (stereo not given in full), with 2120 nM; and `CNC(=O)[C@H](Cc1ccccc1)NC(=O)[C@H](CC(C)C)NC(CCCN1C(=O)c2cccc3cccc(c23)C1=O)P(=O)(O)O` (stereo not given in full), with 730 nM; and `CNC(=O)[C@H](Cc1ccccc1)NC(=O)[C@H](CC(C)C)N[C@H](CCN1C(=O)c2cccc3cccc(c23)C1=O)P(=O)(O)O`, with 150 nM.

The molecule `CNC(=O)[C@H](Cc1ccccc1)NC(=O)[C@H](CC(C)C)NC(CCN1C(=O)c2cccc3cccc(c23)C1=O)[PH](=O)O` (stereo not given in full) showed an IC50 of more than 100000 nM.

With `CNC(=O)[C@H](Cc1ccccc1)NC(=O)[C@H](CC(C)C)N[C@@H](CCN1C(=O)c2ccccc2C1=O)P(=O)(O)O`, 190 nM corresponded to half-maximal inhibition (IC50).

`CNC(=O)[C@H](Cc1ccccc1)NC(=O)[C@H](CC(C)C)N[C@H](CCN1C(=O)c2cccc3c(Br)ccc(c23)C1=O)P(=O)(O)O` displayed a concentration for half-maximal inhibition (IC50) of 1630 nM. Molecule `CNC(=O)[C@H](Cc1ccccc1)NC(=O)[C@H](CC(C)C)N[C@@H](CCN1C(=O)c2cccc3cccc(c23)C1=O)P(=O)(O)O` came in with a 50% inhibitory concentration (IC50) of 30 nM.
